Results from the supplement of paper PMC10307832.

Columns and labels:
Experiment in all cases: relative viability (nuclei count vs DMSO), 5 days (fraction); higher = more cells survive
Axitinib + OSI-027 = compound: CNC(=O)c1ccccc1Sc1ccc2c(/C=C/c3ccccn3)n[nH]c2c1 [Axitinib] + COc1cccc2cc(-c3nc([C@H]4CC[C@H](C(=O)O)CC4)n4ncnc(N)c34)[nH]c12 [OSI-027] (partner 0.5 µM)
Method in brief: (§1)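 Dosing by pin tool came one day after lung cancer cell lines were seeded in 1536-well plates, using either one drug or a fixed anchor-drug dose plus five library-drug doses (not always all listed) in √10 steps. After 5 days, nuclei were counted on 4× images. Relative viability is treated-well nuclei count divided by vehicle-well nuclei count, and values are medians of duplicate plates.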

Axitinib + Olaparib = compound: CNC(=O)c1ccccc1Sc1ccc2c(/C=C/c3ccccn3)n[nH]c2c1 [Axitinib] + O=C(c1cc(Cc2n[nH]c(=O)c3ccccc23)ccc1F)N1CCN(C(=O)C2CC2)CC1 [Olaparib] (partner 8 µM)
Method in brief: as §1

Bemcentinib + Olaparib = compound: Nc1nc(Nc2ccc3c(c2)CC[C@@H](N2CCCC2)CC3)nn1-c1cc2c(nn1)-c1ccccc1CCC2 [Bemcentinib] + O=C(c1cc(Cc2n[nH]c(=O)c3ccccc23)ccc1F)N1CCN(C(=O)C2CC2)CC1 [Olaparib] (partner 8 µM)
Method in brief: as §1

Bemcentinib + Pictilisib = compound: Nc1nc(Nc2ccc3c(c2)CC[C@@H](N2CCCC2)CC3)nn1-c1cc2c(nn1)-c1ccccc1CCC2 [Bemcentinib] + CS(=O)(=O)N1CCN(Cc2cc3nc(-c4cccc5[nH]ncc45)nc(N4CCOCC4)c3s2)CC1 [Pictilisib] (partner 1 µM)
Method in brief: as §1

Cell Line | relative viability (Axitinib + OSI-027; first compound 0.005 µM) | relative viability (Axitinib + OSI-027; first compound 0.01581 µM) | relative viability (Axitinib + OSI-027; first compound 0.05 µM) | relative viability (Axitinib + OSI-027; first compound 0.1581 µM) | relative viability (Axitinib + OSI-027; first compound 0.5 µM) | relative viability (Axitinib + Olaparib; first compound 0.005 µM) | relative viability (Axitinib + Olaparib; first compound 0.01581 µM) | relative viability (Axitinib + Olaparib; first compound 0.05 µM) | relative viability (Axitinib + Olaparib; first compound 0.1581 µM) | relative viability (Axitinib + Olaparib; first compound 0.5 µM) | relative viability (Bemcentinib + Olaparib; first compound 0.04 µM) | relative viability (Bemcentinib + Olaparib; first compound 0.1265 µM) | relative viability (Bemcentinib + Olaparib; first compound 0.4 µM) | relative viability (Bemcentinib + Olaparib; first compound 1.265 µM) | relative viability (Bemcentinib + Olaparib; first compound 4 µM) | relative viability (Bemcentinib + Pictilisib; first compound 0.04 µM) | relative viability (Bemcentinib + Pictilisib; first compound 0.1265 µM) | relative viability (Bemcentinib + Pictilisib; first compound 0.4 µM) | relative viability (Bemcentinib + Pictilisib; first compound 1.265 µM) | relative viability (Bemcentinib + Pictilisib; first compound 4 µM)
NCI-H522 | 0.765 | 0.665 | 0.572 | 0.857 | 0.647 | 0.61 | 0.639 | 0.641 | 0.562 | 0.748 | 0.739 | 0.696 | 0.593 | 0.556 | 0.652 | – | – | – | – | –
LU99A | 0.314 | 0.317 | 0.342 | 0.289 | 0.304 | 0.272 | 0.287 | 0.273 | 0.286 | 0.304 | 0.27 | 0.259 | 0.244 | 0.259 | 0.286 | 0.362 | 0.356 | 0.329 | 0.346 | 0.357
NCI-H1437 | 0.905 | 0.832 | 0.872 | 0.846 | 0.847 | 0.677 | 0.623 | 0.62 | 0.611 | 0.629 | 0.639 | 0.656 | 0.718 | 0.651 | 0.592 | 0.457 | 0.479 | 0.418 | 0.409 | 0.448
NCI-H460 | 0.692 | 0.603 | 0.665 | 0.645 | 0.79 | 0.411 | 0.402 | 0.514 | 0.379 | 0.498 | 0.433 | 0.407 | 0.555 | 0.52 | 0.473 | 0.252 | 0.267 | 0.412 | 0.26 | 0.374
NCI-H1395 | 0.595 | 0.595 | 0.736 | 0.581 | 0.633 | 0.51 | 0.446 | 0.432 | 0.435 | 0.545 | – | 0.474 | 0.462 | 0.497 | 0.463 | 0.787 | 0.619 | 0.83 | 0.612 | 0.674
NCI-H2085 | 0.827 | 0.691 | 0.857 | 0.77 | 0.66 | 0.775 | 0.769 | 0.807 | 0.758 | 0.787 | 0.747 | 0.707 | 0.768 | 0.755 | 0.741 | 0.44 | 0.468 | 0.418 | 0.459 | 0.451
NCI-H1703 | – | – | – | – | – | 0.392 | 0.225 | 0.243 | 0.216 | 0.201 | 0.34 | 0.447 | 0.465 | 0.389 | 0.357 | 0.246 | 0.259 | 0.23 | 0.22 | 0.243
HCC-366 | 0.979 | 0.895 | 1.09 | 1.02 | 0.939 | 0.362 | 0.33 | 0.422 | 0.304 | 0.37 | 0.421 | 0.35 | 0.415 | 0.387 | 0.353 | 0.124 | 0.206 | 0.157 | 0.124 | 0.146
NCI-H1648 | 0.258 | 0.238 | – | 0.245 | 0.249 | 0.616 | 0.975 | 0.554 | 0.979 | 0.958 | 1.3 | 0.925 | 0.746 | 0.777 | 0.695 | – | – | – | – | –
NCI-H322M | 0.569 | 0.575 | 0.546 | 0.536 | 0.601 | 0.965 | 0.849 | 0.753 | 0.724 | 1.06 | 0.796 | 0.84 | 0.844 | 0.854 | 0.839 | 0.512 | 0.522 | 0.418 | 0.525 | 0.564
201T | 0.735 | 0.675 | 0.502 | 0.706 | 0.679 | 0.861 | 0.805 | 0.795 | 0.859 | 0.875 | 0.872 | 0.874 | 0.934 | 0.897 | 0.818 | 0.689 | 0.694 | 0.763 | 0.712 | 0.748
SK-LU-1 | 0.396 | 0.374 | 0.37 | 0.409 | 0.415 | 0.454 | 0.476 | 0.525 | 0.448 | 0.477 | 0.456 | 0.569 | 0.452 | 0.47 | 0.488 | 0.557 | 0.572 | 0.619 | 0.587 | 0.679
Calu-6 | – | – | – | – | – | 0.554 | 0.605 | 0.607 | 0.555 | 0.681 | 0.525 | 0.573 | 0.614 | 0.535 | 0.57 | 0.917 | 1.15 | 1.1 | 0.953 | 1.03
EBC-1 | – | – | – | – | – | 0.788 | 0.648 | 0.768 | 0.69 | 0.769 | 0.773 | 0.73 | 0.693 | 0.691 | 0.754 | 0.391 | 0.307 | 0.39 | 0.399 | 0.353
IA-LM | – | – | – | – | – | 1.07 | 0.855 | 0.821 | 0.808 | 0.832 | 0.799 | 0.913 | 0.885 | 0.859 | 0.89 | 0.33 | 0.374 | 0.397 | 0.304 | 0.33
NCI-H2342 | 0.571 | 0.614 | 0.663 | 0.633 | 0.638 | 0.51 | 0.464 | 0.421 | 0.528 | 0.44 | 0.43 | 0.441 | 0.359 | 0.486 | 0.463 | – | – | – | – | –
SW 900 | 0.646 | 0.536 | 0.562 | 0.564 | 0.699 | 1.02 | – | 1.07 | 0.892 | 0.927 | 0.841 | 1.17 | 0.804 | 0.769 | 0.817 | – | – | – | – | –
NCI-H1623 | 0.455 | 0.398 | 0.424 | 0.436 | 0.454 | – | – | – | – | – | – | – | – | – | – | – | – | – | – | –
A549 | – | – | – | – | – | 0.471 | 0.36 | 0.373 | 0.327 | 0.412 | 0.264 | 0.279 | 0.323 | 0.167 | 0.342 | 0.524 | 0.445 | 0.579 | 0.534 | 0.494
